Data: ChEMBL document CHEMBL1201862, “PubChem BioAssay data set” (2004)
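A five-concentration, 48-hour dose response in 96-well plates underlies each endpoint, interpolated linearly between surrounding concentrations. Here, GI50 denotes the concentration required for 50% inhibition of growth.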 Active and inactive are the calls of the source. Cut-off read from the data, not from the text of the source: active = GI50 up to about 1.1 µM and inactive = higher.

What was measured:
Experiment in all cases: growth of human tumour cells (NCI), 48 h
786-0 = system: 786-0
A549 = system: A549
CCRF-CEM = system: CCRF-CEM
COLO 205 = system: COLO 205
HOP-92 = system: HOP-92
K562 = system: K562
KM12 = system: KM12
LOX IMVI = system: LOX IMVI
NCI-H460 = system: NCI-H460
OVCAR-5 = system: OVCAR-5
OVCAR-8 = system: OVCAR-8
RXF 393 = system: RXF 393
SF-268 = system: SF-268
SF-539 = system: SF-539
SK-MEL-2 = system: SK-MEL-2
SK-OV-3 = system: SK-OV-3
SN12C = system: SN12C
SNB-19 = system: SNB-19
TK-10 = system: TK-10
UO-31 = system: UO-31

Measured: GI50

CCCCCCCCC[n+]1cccc(C2C(C(=O)OCC)=C(C)NC(C)=C2C(=O)OCC)c1
inactive: 786-0 7.08 µM | A549 18.2 µM | CCRF-CEM 2.11 µM | COLO 205 2.56 µM | HOP-92 1.95 µM | K562 3.89 µM | KM12 1.98 µM | LOX IMVI 2.92 µM | NCI-H460 5.7 µM | OVCAR-5 10.7 µM | OVCAR-8 3.39 µM | RXF 393 2.03 µM | SF-268 4.67 µM | SF-539 4.15 µM | SK-MEL-2 1.65 µM | SK-OV-3 11.3 µM | SN12C 4.67 µM | SNB-19 3.45 µM | TK-10 10.7 µM | UO-31 16.2 µM

O=S(=O)(C/C(=N\O)c1ccccc1)c1ccccc1
inactive: 786-0 > 100 µM | A549 > 100 µM | CCRF-CEM > 100 µM | COLO 205 > 100 µM | HOP-92 > 100 µM | K562 > 100 µM | KM12 > 100 µM | LOX IMVI > 100 µM | NCI-H460 > 100 µM | OVCAR-5 > 100 µM | OVCAR-8 > 100 µM | RXF 393 > 100 µM | SF-268 > 100 µM | SF-539 > 100 µM | SK-MEL-2 > 100 µM | SK-OV-3 > 100 µM | SN12C > 100 µM | SNB-19 > 100 µM | TK-10 > 100 µM | UO-31 > 100 µM

C=C1C(=O)OC2CC(C)C(C(O)CC(C)O)=CCC12 (stereo not given)
inactive: 786-0 13.7 µM | A549 25.9 µM | CCRF-CEM 1.71 µM | COLO 205 10.5 µM | HOP-92 12 µM | K562 14.1 µM | KM12 18.6 µM | LOX IMVI 10.6 µM | NCI-H460 18.9 µM | OVCAR-5 15 µM | OVCAR-8 17.1 µM | RXF 393 12.5 µM | SF-268 14.3 µM | SF-539 15 µM | SK-MEL-2 16.3 µM | SK-OV-3 36.7 µM | SN12C 11.4 µM | SNB-19 28.4 µM | TK-10 9.14 µM | UO-31 16.2 µM

COc1ccc(O)cc1 [MEQUINOL]
inactive: 786-0 92 µM | A549 > 100 µM | CCRF-CEM 60.3 µM | COLO 205 > 100 µM | HOP-92 44.1 µM | K562 68.1 µM | KM12 42.7 µM | LOX IMVI 49 µM | NCI-H460 97.1 µM | OVCAR-5 35.4 µM | OVCAR-8 55.7 µM | RXF 393 > 100 µM | SF-268 55 µM | SF-539 47.4 µM | SK-MEL-2 > 100 µM | SK-OV-3 > 100 µM | SN12C > 100 µM | SNB-19 > 100 µM | TK-10 > 100 µM | UO-31 57.4 µM

O=C(CCc1ccc(O)c(O)c1)NCCc1ccccc1
inactive: 786-0 31.6 µM | A549 76.9 µM | CCRF-CEM 3.17 µM | COLO 205 23.1 µM | HOP-92 48.3 µM | K562 16.5 µM | KM12 49.9 µM | LOX IMVI 63.2 µM | NCI-H460 > 91.2 µM | OVCAR-5 > 100 µM | OVCAR-8 > 47.5 µM | RXF 393 > 100 µM | SF-268 > 32.4 µM | SF-539 > 47.8 µM | SK-MEL-2 32.7 µM | SK-OV-3 65.8 µM | SN12C > 31.6 µM | SNB-19 > 74.5 µM | TK-10 > 79.8 µM | UO-31 10.2 µM

CC(CN1NC12CCCC2)N1NC12CCCC2 (stereo not given)
inactive: 786-0 > 100 µM | A549 > 100 µM | CCRF-CEM > 100 µM | COLO 205 > 100 µM | HOP-92 > 100 µM | K562 > 100 µM | KM12 > 100 µM | LOX IMVI > 100 µM | NCI-H460 > 100 µM | OVCAR-5 > 100 µM | OVCAR-8 > 100 µM | RXF 393 > 100 µM | SF-268 > 100 µM | SF-539 > 100 µM | SK-MEL-2 > 100 µM | SK-OV-3 > 100 µM | SN12C > 100 µM | SNB-19 > 100 µM | TK-10 > 100 µM | UO-31 > 100 µM
